Experimental data taken from patent publication US20080207527A1, “Bicyclic Compounds Which Inhibit Beta-Secretase Activity and Methods of Use Thereof” (CoMentis, Inc., priority 2004, published 2008).

Legend:
memapsin 1 = biological target: T1, memapsin 1 (Homo sapiens, UniProt Q9Y5Z0); test: Inhibition of memapsin 1 beta-secretase activity (substrate peptide hydrolysis, MALDI-TOF); assay type: biochemical; settings: pH 4.1, 37 degrees C., read-out: M1 Ki
T1 sequence (Q9Y5Z0 63-518): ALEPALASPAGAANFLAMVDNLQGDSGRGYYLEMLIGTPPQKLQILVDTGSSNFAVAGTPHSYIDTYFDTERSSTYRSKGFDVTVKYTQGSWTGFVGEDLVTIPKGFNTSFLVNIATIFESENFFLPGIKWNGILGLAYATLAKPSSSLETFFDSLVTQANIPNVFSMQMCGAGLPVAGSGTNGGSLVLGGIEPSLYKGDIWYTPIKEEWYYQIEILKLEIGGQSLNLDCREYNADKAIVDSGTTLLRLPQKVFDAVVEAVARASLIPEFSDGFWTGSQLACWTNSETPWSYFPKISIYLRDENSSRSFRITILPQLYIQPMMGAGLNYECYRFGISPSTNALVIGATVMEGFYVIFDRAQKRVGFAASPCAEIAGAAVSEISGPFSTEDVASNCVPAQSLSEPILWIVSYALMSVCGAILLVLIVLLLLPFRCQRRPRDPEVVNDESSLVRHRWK

Aβ production = test: Cellular Aβ IC50 determination (Aβ40 sandwich ELISA); assay type: cell-based; settings: Cricetulus griseus, Chinese hamster ovary cells over-expressing human APP695 with London and Swedish mutations, 24 h
Experimental: The potency of compounds against memapsin 2 activity was determined in a cellular assay of Aβ production. […] Chinese hamster ovary cells that over-express human APP695 with the London and Swedish mutations were seeded in multi-well plates at 10% confluency. Compounds were dissolved in DMSO to concentrations near 1 mM, and diluted into culture media to a final concentration near 4 μM (final 0.4% DMSO). Compounds were diluted serially and applied to cells in multi-well plates 48 h after seeding. Incubation was continued in 5% CO2 at 37 degrees C. for 24 h. Aliquots were removed and assayed for Aβ40 content using a sandwich ELISA (BioSource International). Amount of Aβ40 over the range of concentration of compounds, relative to control incubations, were fit to a 4-parameter IC50 model.

Cathepsin D = Cathepsin D (Homo sapiens, UniProt P07339); test: Inhibition of cathepsin D activity (substrate peptide hydrolysis, MALDI-TOF); assay type: biochemical; settings: pH 4.1, 37 degrees C., read-out: Cath D Ki
Cathepsin D, sequence (P07339 65-412, species assumed): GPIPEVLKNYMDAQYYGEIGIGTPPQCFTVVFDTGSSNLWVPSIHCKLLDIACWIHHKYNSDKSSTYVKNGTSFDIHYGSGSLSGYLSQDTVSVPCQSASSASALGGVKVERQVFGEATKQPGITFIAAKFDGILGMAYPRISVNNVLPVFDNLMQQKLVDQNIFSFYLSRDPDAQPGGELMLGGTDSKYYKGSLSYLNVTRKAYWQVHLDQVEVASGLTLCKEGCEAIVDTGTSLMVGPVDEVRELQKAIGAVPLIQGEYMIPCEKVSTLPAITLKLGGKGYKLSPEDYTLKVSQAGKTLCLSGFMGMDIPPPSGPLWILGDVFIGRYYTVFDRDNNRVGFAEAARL

memapsin 2 = memapsin 2 (Homo sapiens, UniProt P56817); test: Inhibition of memapsin 2 beta-secretase activity toward fluorogenic substrate FS-2; assay type: biochemical; settings: pH 4, 37° C., 20 minutes pre-incubation, read-out: M2 Ki
memapsin 2, sequence (P56817 46-501): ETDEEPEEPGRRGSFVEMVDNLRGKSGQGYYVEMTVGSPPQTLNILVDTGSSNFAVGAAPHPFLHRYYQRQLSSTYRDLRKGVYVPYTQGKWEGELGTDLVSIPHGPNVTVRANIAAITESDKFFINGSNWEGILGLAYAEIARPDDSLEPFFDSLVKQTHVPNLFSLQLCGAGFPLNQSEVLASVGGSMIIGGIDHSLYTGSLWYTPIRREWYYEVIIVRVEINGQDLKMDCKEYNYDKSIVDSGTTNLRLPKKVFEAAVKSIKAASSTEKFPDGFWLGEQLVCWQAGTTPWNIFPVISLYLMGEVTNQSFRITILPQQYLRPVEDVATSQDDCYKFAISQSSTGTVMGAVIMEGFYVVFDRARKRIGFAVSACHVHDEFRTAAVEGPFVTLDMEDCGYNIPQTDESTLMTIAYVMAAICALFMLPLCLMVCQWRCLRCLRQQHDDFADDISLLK
Experimental: Potency of compounds were determined by measurement of their inhibition of memapsin 2 activity toward a fluorescent substrate. […] Briefly, assays were performed at pH 4, 37° C., by pre-incubation of memapsin 2 enzyme with compound for 20 minutes. Activity measure was initiated by addition of a fluorogenic substrate FS-2 (Bachem Americas, Torrance, Calif.). Fluorescent signal increase over time was measured as a rate of hydrolysis of the peptide substrate.

| SMILES | Ki (memapsin 1) | IC50 (Aβ production) | Ki (Cathepsin D) | Ki (memapsin 2) |
| --- | --- | --- | --- | --- |
| CC(C)CC(NC(=O)c1cc(C(=O)NC(C)c2ccccc2)cc(N(C)S(C)(=O)=O)c1)C(O)CC(C)C(=O)NC(C(=O)NCc1ccccn1)C(C)C (stereo not drawn) [N1-(5-hydroxy-2,7-dimethyl-8-(3-methyl-1-oxo-1-(pyridin-2-ylmethylamino)butan-2-ylamino)-8-oxooctan-4-yl)-5-(N-methylmethylsulfonamido)-N3-(1-phenylethyl)isophthalamide] | < 405 nM | < 5000 nM | < 405 nM | < 405 nM |
| CC(C)CNC(=O)C(NC(=O)C(C)CC(O)C(CC(C)C)NC(=O)c1cc(C(=O)NC(C)c2ccccc2)cc(S(=O)(=O)N(C)C)c1)C(C)C (stereo not drawn) [5-(N,N-dimethylsulfamoyl)-N1-(5-hydroxy-8-(1-(isobutylamino)-3-methyl-1-oxobutan-2-ylamino)-2,7-dimethyl-8-oxooctan-4-yl)-N3-(1-phenylethyl)isophthalamide] | < 405 nM | < 5000 nM | < 405 nM | 405 to 2000 nM |
| CC(C)CC(NC(=O)c1cc(C(=O)NC(C)c2ccccc2)cc(N(C)S(C)(=O)=O)c1)C(O)CC(C)C(=O)NC(C(=O)NCc1ccncc1)C(C)C (stereo not drawn) [N1-(5-hydroxy-2,7-dimethyl-8-(3-methyl-1-oxo-1-(pyridin-4-ylmethylamino)butan-2-ylamino)-8-oxooctan-4-yl)-5-(N-methylmethylsulfonamido)-N3-(1-phenylethyl)isophthalamide] | < 405 nM | < 5000 nM | < 405 nM | < 405 nM |
| CC(C)CC(NC(=O)c1cc(C(=O)NC2c3ccccc3CC2O)cc(N(C)S(C)(=O)=O)c1)C(O)CC(C)C(=O)NC(C(=O)NC(C)C)C(C)C (stereo not drawn) [N1-(2-hydroxy-2,3-dihydro-1H-inden-1-yl)-N3-(5-hydroxy-8-(1-(isopropylamino)-3-methyl-1-oxobutan-2-ylamino)-2,7-dimethyl-8-oxooctan-4-yl)-5-(N-methylmethylsulfonamido)isophthalamide] | 405 to 2000 nM | > 20000 nM | 405 to 2000 nM | 405 to 2000 nM |
| Cc1ccc(CNC(=O)c2cc(C(=O)NC(CC(C)C)C(O)CC(C)C(=O)NC(C(=O)NCC(C)C)C(C)C)cc(N(C)S(C)(=O)=O)c2)o1 (stereo not drawn) [N1-(5-hydroxy-8-(1-(isobutylamino)-3-methyl-1-oxobutan-2-ylamino)-2,7-dimethyl-8-oxooctan-4-yl)-N3-((5-methylfuran-2-yl)methyl)-5-(N-methylmethylsulfonamido)isophthalamide] | 405 to 2000 nM | < 5000 nM | 405 to 2000 nM | < 405 nM |
| CC(C)CNC(=O)C(NC(=O)C(C)CC(O)C(CC(C)C)NC(=O)c1cccc(C(=O)N(C)Cc2ccccn2)c1)C(C)C (stereo not drawn) [N1-(5-hydroxy-8-(1-(isobutylamino)-3-methyl-1-oxobutan-2-ylamino)-2,7-dimethyl-8-oxooctan-4-yl)-N3-methyl-N3-(pyridin-2-ylmethyl)isophthalamide] | < 405 nM | > 20000 nM | < 405 nM | 405 to 2000 nM |
| Cc1csc(CNC(=O)c2cccc(C(=O)N[C@@H](CC(C)C)[C@@H](O)C[C@@H](C)C(=O)N[C@H](C(=O)NCC(C)C)C(C)C)c2)n1 [N1-(5-hydroxy-8-(1-(isobutylamino)-3-methyl-1-oxobutan-2-ylamino)-2,7-dimethyl-8-oxooctan-4-yl)-N3-((4-methylthiazol-2-yl)methyl)isophthalamide] | 2000 to 5000 nM | > 20000 nM | 405 to 2000 nM | < 405 nM |

The next lines start with the values.

| Ki (memapsin 1) | IC50 (Aβ production) | Ki (Cathepsin D) | Ki (memapsin 2) | SMILES |
| --- | --- | --- | --- | --- |
| 405 to 2000 nM | > 20000 nM | < 405 nM | < 405 nM | CC(C)CNC(=O)C(NC(=O)C(C)CC(O)C(CC(C)C)NC(=O)c1cc(C(=O)N(C)Cc2ccccn2)cc(N(C)S(C)(=O)=O)c1)C(C)C (stereo not drawn) [N1-(5-hydroxy-8-(1-(isobutylamino)-3-methyl-1-oxobutan-2-ylamino)-2,7-dimethyl-8-oxooctan-4-yl)-N3-methyl-5-(N-methylmethylsulfonamido)-N3-(pyridin-2-ylmethyl)isophthalamide] |
| 405 to 2000 nM | < 5000 nM | < 405 nM | < 405 nM | Cc1csc(CN(C)C(=O)c2cccc(C(=O)NC(CC(C)C)C(O)CC(C)C(=O)NC(C(=O)NCC(C)C)C(C)C)c2)n1 (stereo not drawn) [N1-(5-hydroxy-8-(1-(isobutylamino)-3-methyl-1-oxobutan-2-ylamino)-2,7-dimethyl-8-oxooctan-4-yl)-N3-methyl-N3-((4-methylthiazol-2-yl)methyl)isophthalamide] |
| > 5000 nM | < 5000 nM | 405 to 2000 nM | < 405 nM | CCC(NC(=O)C(C)CC(O)C(CC(C)C)NC(=O)c1cccc(C(=O)N(C)Cc2nc(C)cs2)c1)C(=O)NC(C)C (stereo not drawn) [N1-(5-hydroxy-8-(1-(isopropylamino)-1-oxobutan-2-ylamino)-2,7-dimethyl-8-oxooctan-4-yl)-N3-methyl-N3-((4-methylthiazol-2-yl)methyl)isophthalamide] |
| 405 to 2000 nM | > 20000 nM | 405 to 2000 nM | < 405 nM | CC(C)CNC(=O)C(NC(=O)C(C)CC(O)C(CC(C)C)NC(=O)c1cc(C(=O)NCc2cnccn2)cc(N(C)S(C)(=O)=O)c1)C(C)C (stereo not drawn) [N1-(5-hydroxy-8-(1-(isobutylamino)-3-methyl-1-oxobutan-2-ylamino)-2,7-dimethyl-8-oxooctan-4-yl)-5-(N-methylmethylsulfonamido)-N3-(pyrazin-2-ylmethyl)isophthalamide] |
| > 5000 nM | 10000 to 20000 nM | 2000 to 5000 nM | 405 to 2000 nM | CC(C)CC(NC(=O)c1cc(C(=O)NC(C)c2ccccc2)cc(N(C)S(C)(=O)=O)c1)C(O)CC(C)C(=O)NC(C)c1ccccc1 (stereo not drawn) [N1-(5-hydroxy-2,7-dimethyl-8-oxo-8-(1-phenylethylamino)octan-4-yl)-5-(N-methylmethylsulfonamido)-N3-(1-phenylethyl)isophthalamide] |
| < 405 nM | < 5000 nM | < 405 nM | < 405 nM | CCC(NC(=O)C(C)CC(O)C(CC(C)C)NC(=O)c1cc(C(=O)NC(C)c2ccccc2)cc(N(C)S(C)(=O)=O)c1)C(=O)NCC(C)C (stereo not drawn) [N1-(5-hydroxy-8-(1-(isobutylamino)-1-oxobutan-2-ylamino)-2,7-dimethyl-8-oxooctan-4-yl)-5-(N-methylmethylsulfonamido)-N3-(1-phenylethyl)isophthalamide] |
| < 405 nM | > 20000 nM | < 405 nM | 405 to 2000 nM | CC(C)CNC(=O)C(NC(=O)C(C)CC(O)C(CC(C)C)NC(=O)c1cc(C(=O)N(C)C(C)c2ccccc2)cc(N(C)S(C)(=O)=O)c1)C(C)C (stereo not drawn) [N1-(5-hydroxy-8-(1-(isobutylamino)-3-methyl-1-oxobutan-2-ylamino)-2,7-dimethyl-8-oxooctan-4-yl)-N3-methyl-5-(N-methylmethylsulfonamido)-N3-(1-phenylethyl)isophthalamide] |
| < 405 nM | 10000 to 20000 nM | < 405 nM | 405 to 2000 nM | CC(C)CNC(=O)C(NC(=O)C(C)CC(O)C(CC(C)C)NC(=O)c1cc(F)cc(C(=O)NC(C)c2ccccc2)c1)C(C)C (stereo not drawn) [5-fluoro-N1-(5-hydroxy-8-(1-(isobutylamino)-3-methyl-1-oxobutan-2-ylamino)-2,7-dimethyl-8-oxooctan-4-yl)-N3-(1-phenylethyl)isophthalamide] |
| < 405 nM |  | < 405 nM | 405 to 2000 nM | COC(=O)N(C)c1cc(C(=O)NC(C)c2ccccc2)cc(C(=O)NC(CC(C)C)C(O)CC(C)C(=O)NC(C(=O)NCC(C)C)C(C)C)c1 (stereo not drawn) [methyl 3-(5-hydroxy-8-(1-(isobutylamino)-3-methyl-1-oxobutan-2-ylamino)-2,7-dimethyl-8-oxooctan-4-ylcarbamoyl)-5-(1-phenylethylcarbamoyl)phenyl(methyl)carbamate] |
| 405 to 2000 nM |  | < 405 nM | 2000 to 5000 nM | COc1ccc(C[C@H](NC(=O)c2cccc(C(=O)NCc3nc(C)cs3)c2)[C@@H](O)C[C@@H](C)C(=O)N[C@H](C(=O)NCC(C)C)C(C)C)cc1 [N1-(3-hydroxy-6-(1-(isobutylamino)-3-methyl-1-oxobutan-2-ylamino)-1-(4-methoxyphenyl)-5-methyl-6-oxohexan-2-yl)-N3-((4-methylthiazol-2-yl)methyl)isophthalamide] |
